This is an account of results in patent publication US10556874B2, “N-(1,3,4-oxadiazol-2-yl)aryl carboxamide derivatives with herbicidal action” (Bayer CropScience Aktiengesellschaft, priority 2015, dated 2020).

Common to all, as to assay type: in vivo
Assay [1] relates to Alopecurus myosuroides (ALOMY). Nature of the assay: Comparative experiment in pre-emergence. To be noted: dosage 80 g/ha, 100% = plants have died, 0% = like control plants. The source says:
(§1) Seeds of monocotyledonous and dicotyledonous weed plants and crop plants are laid out in wood-fiber pots in sandy loam and covered with soil. The compounds of the invention, formulated in the form of wettable powders (WP) or as emulsion concentrates (EC), are then applied to the surface of the covering soil in the form of an aqueous suspension or emulsion at a water application rate equating to 600 to 800 l/ha, with addition of 0.2% wetting agent. After the treatment, the pots are placed in a greenhouse and kept under good growth conditions for the trial plants. The damage to the test plants is scored visually after a test period of 3 weeks by comparison with untreated controls (herbicidal activity in percent (%): 100% activity=the plants have died, 0% activity=like control plants). Here, for example, the compounds Nos. 1-145, 1-385, 3-385, 4-145, 4-385, 6-385, 7-145, 7-385 and 9-385, at an application rate of 320 g/ha, each show an activity of at least 80% against Stellaria media and Veronica persica.
3. Comparative Experiment in Pre-Emergence
For comparative purposes, the herbicidal activity of some compounds according to the invention and the most structurally similar compounds known from the prior art were tested.

For assay [2], the system named is Stellaria media. The assay can be described thus: Post-emergence herbicidal action against harmful plants. Conditions: 504 h, application rate 80 g/ha, assessed visually after about 3 weeks vs untreated controls, read-out: herbicidal action in percent. How it is done:
(§2) 2. Post-Emergence Herbicidal Action Against Harmful Plants
(§3) Seeds of monocotyledonous and dicotyledonous weed and crop plants are laid out in sandy loam soil in wood-fiber pots, covered with soil and cultivated in a greenhouse under good growth conditions. 2 to 3 weeks after sowing, the test plants are treated at the one-leaf stage. The compounds of the invention, formulated in the form of wettable powders (WP) or as emulsion concentrates (EC), are then sprayed onto the green parts of the plants in the form of an aqueous suspension or emulsion at a water application rate equating to 600 to 800 l/ha, with addition of 0.2% wetting agent. After the test plants have been left to stand in the greenhouse under optimal growth conditions for about 3 weeks, the action of the preparations is assessed visually in comparison to untreated controls (herbicidal action in percent (%): 100% activity=the plants have died, 0% activity=like control plants). Here, for example, the compounds Nos. 1-145, 1-385, 3-385, 4-145, 4-385, 6-385, 7-145, 7-385 and 9-385, at an application rate of 80 g/ha, each show an activity of at least 80% against Stellaria media and Amaranthus retroflexus.

The test system of the next assay is Amaranthus retroflexus. The assay is described as above. Conditions: 504 h, application rate 80 g/ha, assessed visually after about 3 weeks vs untreated controls, read-out: herbicidal action in percent. How it is done: as §2, §3
The subject of another assay is Veronica persica. Nature of the assay: Pre-emergence herbicidal action against harmful plants. Conditions: 504 h, application rate 320 g/ha, scored visually after 3 weeks vs untreated controls, read-out: herbicidal activity in percent.
Source text: (§4) 1. Pre-Emergence Herbicidal Action Against Harmful Plants
as §1

The subject of assay [3] is Stellaria media. The assay is described as above. Conditions: 504 h, application rate 320 g/ha, scored visually after 3 weeks vs untreated controls, read-out: herbicidal activity in percent.
Source text: as §4, §1

In the case of `CCOC(=O)OC(C)N(C(=O)c1ccc(C(F)(F)F)c(S(C)(=O)=O)c1C)c1nnc(C)o1` (stereo not shown) [Compound No. 1-145, ethyl 1-{[2-methyl-3-(methylsulfonyl)-4-(trifluoromethyl)benzoyl](5-methyl-1,3,4-oxadiazol-2-yl)amino}ethyl carbonate], the “Herbicidal activity against ALOMY” value in assay [1] came out at 100%. The pest or weed control at 80 g/ha with Stellaria media [2] and in the assay on Amaranthus retroflexus was at least 80% throughout. For the same molecule, the pest or weed control at 320 g/ha with Veronica persica and in the assay on Stellaria media [3] was at least 80% in each case.
Consider `CCOC(=O)OC(C)N(C(=O)c1ccc(C(F)(F)F)c([S+](C)[O-])c1Cl)c1nnc(C)o1` (stereo not shown) [Compound No. 1-385, 1-{[2-chloro-3-(methylsulfinyl)-4-(trifluoromethyl)benzoyl](5-methyl-1,3,4-oxadiazol-2-yl)amino}ethyl ethyl carbonate], for which the pest or weed control at 80 g/ha with Stellaria media [2] and in the assay on Amaranthus retroflexus was at least 80% in each case. The pest or weed control at 320 g/ha in the assay with Veronica persica and in the assay on Stellaria media [3] was at least 80% in each case.
As for `Cc1nnc(N(C(=O)c2ccc(C(F)(F)F)c([S+](C)[O-])c2Cl)C(C)OC(=O)OC2CCCCC2)o1` (stereo not shown) [Compound No. 3-385, 1-{[2-chloro-3-(methylsulfinyl)-4-(trifluoromethyl)benzoyl](5-methyl-1,3,4-oxadiazol-2-yl)amino}ethyl cyclohexyl carbonate], the “Herbicidal activity against ALOMY” value in assay [1] came out at 100%. The pest or weed control at 80 g/ha with Stellaria media [2] and in the assay on Amaranthus retroflexus was at least 80% in each case. The pest or weed control at 320 g/ha in the assay on Veronica persica and in the assay on Stellaria media [3] was at least 80% each time.
As for `CCOC(=O)OC(C)n1nc(C)oc1=NC(=O)c1ccc(C(F)(F)F)c(S(C)(=O)=O)c1C` (stereo not shown) [Compound No. 4-145, ethyl 1-[5-methyl-2-{[2-methyl-3-(methylsulfonyl)-4-(trifluoromethyl)benzoyl]imino}-1,3,4-oxadiazol-3(2H)-yl]ethyl carbonate], the pest or weed control at 80 g/ha in the assay on Stellaria media [2] and with Amaranthus retroflexus was at least 80% throughout. Besides, the pest or weed control at 320 g/ha in the assay with Veronica persica and with Stellaria media [3] was at least 80% each time.
With `CCOC(=O)OC(C)n1nc(C)oc1=NC(=O)c1ccc(C(F)(F)F)c([S+](C)[O-])c1Cl` (stereo not shown) [Compound No. 4-385, ethyl 1-[5-methyl-2-{[2-chloro-3-(methylsulfinyl)-4-(trifluoromethyl)benzoyl]imino}-1,3,4-oxadiazol-3(2H)-yl]ethyl carbonate], the pest or weed control at 80 g/ha in the assay on Stellaria media [2] and in the assay on Amaranthus retroflexus was at least 80% throughout. The pest or weed control at 320 g/ha in the assay on Veronica persica and in the assay on Stellaria media [3] was at least 80% each time.
As for `Cc1nn(C(C)OC(=O)OC2CCCCC2)c(=NC(=O)c2ccc(C(F)(F)F)c([S+](C)[O-])c2Cl)o1` (stereo not shown) [Compound No. 6-385, 1-[2-{[2-chloro-3-(methylsulfinyl)-4-(trifluoromethyl)benzoyl]imino}-5-methyl-1,3,4-oxadiazol-3(2H)-yl]ethyl cyclohexyl carbonate], the pest or weed control at 80 g/ha in the assay with Stellaria media [2] and in the assay on Amaranthus retroflexus was at least 80% throughout. For the same molecule, the pest or weed control at 320 g/ha with Veronica persica and with Stellaria media [3] was at least 80% each time.
For `CCOC(=O)OC(C)OC(=Nc1nnc(C)o1)c1ccc(C(F)(F)F)c(S(C)(=O)=O)c1C` (stereo not shown) [Compound No. 7-145, 1-[(ethoxycarbonyl)oxy]ethyl-2-methyl-N-(5-methyl-1,3,4-oxadiazol-2-yl)-3-(methylsulfonyl)-4-(trifluoromethyl)benzenecarboximidate], the pest or weed control at 80 g/ha with Stellaria media [2] and in the assay on Amaranthus retroflexus was at least 80% in each case. Besides, the pest or weed control at 320 g/ha in the assay on Veronica persica and in the assay on Stellaria media [3] was at least 80% each time.
Turning to `CCOC(=O)OC(C)OC(=Nc1nnc(C)o1)c1ccc(C(F)(F)F)c([S+](C)[O-])c1Cl` (stereo not shown) [Compound No. 7-385, 1-[(ethoxycarbonyl)oxy]ethyl-2-chloro-N-(5-methyl-1,3,4-oxadiazol-2-yl)-3-(methylsulfinyl)-4-(trifluoromethyl)benzenecarboximidate], the “Herbicidal activity against ALOMY” value in assay [1] is 90%. Also, the pest or weed control at 80 g/ha with Stellaria media [2] and in the assay on Amaranthus retroflexus was at least 80% each time. Besides, the pest or weed control at 320 g/ha in the assay on Veronica persica and in the assay on Stellaria media [3] was at least 80% throughout.
Take `Cc1nnc(N=C(OC(C)OC(=O)OC2CCCCC2)c2ccc(C(F)(F)F)c([S+](C)[O-])c2Cl)o1` (stereo not shown) [Compound No. 9-385, 1-{[(cyclohexyloxy)carbonyl]oxy}ethyl-2-chloro-N-(5-methyl-1,3,4-oxadiazol-2-yl)-3-(methylsulfinyl)-4-(trifluoromethyl)benzenecarboximidate]: in assay [1], the “Herbicidal activity against ALOMY” value stood at 90%. In addition, the pest or weed control at 80 g/ha with Stellaria media [2] and with Amaranthus retroflexus was at least 80% throughout. For the same molecule, the pest or weed control at 320 g/ha in the assay on Veronica persica and in the assay with Stellaria media [3] was at least 80% throughout.
